Consider six compounds from ChEMBL document CHEMBL5338795, “Novel Triazoles with Potent and Broad-Spectrum Antifungal Activity In Vitro and In Vivo” (J Med Chem, 2023).

Data set [1] deals with Candida albicans. Description: Antifungal activity against fluconazole-resistant Candida albicans 901 assessed as inhibition of fungal growth measured for 24 hrs by CLSI based microdilution analysis. The format is functional.
Data set [2] concerns the target T1, Lanosterol 14-alpha demethylase (Candida albicans (strain SC5314 / ATCC MYA-2876) (Yeast), UniProt P10613). Description: Inhibition of CYP51 in Candida albicans […] assessed as decrease in ergosterol biosynthesis level at 1 times MIC80 incubated for 16 hrs by GC-MS analysis (Rvb=67.2%).
The target of data set [3] is T1, Lanosterol 14-alpha demethylase. Description: Inhibition of CYP51 in Candida albicans […] assessed as decrease in unknown sterol biosynthesis level at 1 times MIC80 incubated for 16 hrs by GC-MS analysis relative to control.
Data set [4] deals with Candida tropicalis. The data set can be described thus: Antifungal activity against Candida tropicalis ATCC 750 assessed as reduction in fungal growth incubated for 24 hrs by CLSI based microdilution analysis. The format is functional. (In general: In broth dilution the organism is exposed to a series of concentrations in liquid medium.)
The test system of data set [5] is Candida albicans. Description: Antifungal activity against Candida albicans SC5314 assessed as reduction in fungal growth incubated for 24 hrs by CLSI based microdilution analysis. The format is functional.
Data set [6] relates to Meyerozyma guilliermondii. The data set can be described thus: Antifungal activity against Meyerozyma guilliermondii ATCC 6260 assessed as reduction in fungal growth incubated for 24 hrs by CLSI based microdilution analysis. In kind it is functional.
The test system of data set [7] is Aspergillus fumigatus. Description: Antifungal activity against Aspergillus fumigatus CGMCC3 7795 assessed as reduction in fungal growth incubated for 48 hrs by CLSI based microdilution analysis. The format is functional.
Data set [8] concerns Cryptococcus neoformans. Description: Antifungal activity against Cryptococcus neoformans CGMCC3 1563 assessed as reduction in fungal growth incubated for 72 hrs by CLSI based microdilution analysis. The format is functional.
Data set [9] deals with Candida albicans. Description: Antifungal activity against fluconazole-resistant Candida albicans 13 assessed as inhibition of fungal growth measured for 24 hrs by CLSI based microdilution analysis. In kind it is functional.
In data set [10] the test system is CYP3A4. Description: Selectivity index, ratio of MIC80 for antifungal activity against Candida albicans to IC50 for inhibition of CYP3A4 in human liver microsomes. The format is toxicity. Conditions: read-out: Selectivity Index.
Data set [11] deals with Candida albicans. The data set can be described thus: Induction of resistance development in Candida albicans SC5314 assessed as increase in MIC treated over 8 serial passages by microdilution assay. The format is functional.
In data set [12] the test system is Candida parapsilosis. Description: Antifungal activity against Candida parapsilosis ATCC 22019 assessed as reduction in fungal growth incubated for 24 hrs by CLSI based microdilution analysis. In kind it is functional. To be noted: Lodderomyces parapsilosis.
Data set [13] deals with Candida albicans. The data set can be described thus: Induction of resistance development in Candida albicans SC5314 assessed as fold increase in MIC treated over 20 serial passages by microdilution assay. In kind it is functional.
The nature of data set [14]: Hemolytic activity in mouse RBC assessed as hemolysis at 100 microg/ml incubated for 60 mins relative to control. In kind it is toxicity, cell-based, Erythrocyte. Conditions: red blood cells (erythrocytes), at 100 µg/mL, read-out: Activity.
The subject of data set [15] is Candida albicans. Description: Antifungal activity against fluconazole-resistant Candida albicans 15 assessed as inhibition of fungal growth measured for 24 hrs by CLSI based microdilution analysis. In kind it is functional.
Data set [16] concerns Nakaseomyces glabratus. Description: Antifungal activity against Candida glabrata ATCC 15126 assessed as reduction in fungal growth incubated for 24 hrs by CLSI based microdilution analysis. The format is functional.
In data set [17] the test system is Candida albicans. The data set can be described thus: Antifungal activity against fluconazole-resistant Candida albicans 102 assessed as inhibition of fungal growth measured for 24 hrs by CLSI based microdilution analysis. In kind it is functional.
Data set [18] deals with Candida albicans. Description: Antifungal activity against fluconazole-resistant Candida albicans 24D assessed as inhibition of fungal growth measured for 24 hrs by CLSI based microdilution analysis. The format is functional.
For data set [19], the system named is Candida albicans. Description: Antifungal activity against fluconazole-resistant Candida albicans 112869 assessed as inhibition of fungal growth measured for 24 hrs by CLSI based microdilution analysis. The format is functional.

In brackets after ≈: the same amount, converted by molar mass.

T1 sequence (P10613 whole entry): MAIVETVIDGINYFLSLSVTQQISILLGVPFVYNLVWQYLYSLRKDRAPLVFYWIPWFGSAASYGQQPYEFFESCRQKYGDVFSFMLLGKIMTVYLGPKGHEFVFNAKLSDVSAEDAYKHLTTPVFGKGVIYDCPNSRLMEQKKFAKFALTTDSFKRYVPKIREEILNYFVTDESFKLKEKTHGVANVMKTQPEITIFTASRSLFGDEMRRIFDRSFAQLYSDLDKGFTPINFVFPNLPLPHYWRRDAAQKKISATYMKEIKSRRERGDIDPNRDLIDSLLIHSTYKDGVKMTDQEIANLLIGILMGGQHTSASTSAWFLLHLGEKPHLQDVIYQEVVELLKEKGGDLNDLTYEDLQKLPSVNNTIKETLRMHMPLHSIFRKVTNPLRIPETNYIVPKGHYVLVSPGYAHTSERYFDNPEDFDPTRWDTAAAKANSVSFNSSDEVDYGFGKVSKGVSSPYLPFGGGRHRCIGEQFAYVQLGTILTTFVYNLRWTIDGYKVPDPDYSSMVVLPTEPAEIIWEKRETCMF

Regarding `OC(Cn1cncn1)(Cn1cncn1)c1ccc(F)cc1F` [FLUCONAZOLE], the MIC80 – broadly, the lowest concentration that inhibits either 80% of growth or 80% of the strains tested, depending on the study – in data set [1] is above 100 µg/mL; in data set [4], 2.5 µg/mL (≈ 8.16 µM); in data set [5], 0.5 µg/mL (≈ 1.63 µM); in [6] it was 1.25 µg/mL (≈ 4.08 µM); in [7] it was above 100 µg/mL; in data set [8], 1.25 µg/mL (≈ 4.08 µM). Further, the MIC80 was above 100 µg/mL in [9]; 1.25 µg/mL (≈ 4.08 µM) in data set [12]; 32 µg/mL (≈ 104 µM) in data set [15]; 2.5 µg/mL (≈ 8.16 µM) in data set [16]; above 100 µg/mL in data set [17]; above 100 µg/mL in data set [18]. For the same compound, in data set [19], the MIC80 was above 100 µg/mL. Moreover, the “inhibition (INH)” value in data set [2] stood at 17.61%; in data set [3], 24.78%. Further, the selectivity ratio in [10] amounted to 25. Besides, the “fold change (FC)” value in data set [11] is listed as 10; in data set [13], 100. Moreover, in data set [14], the hemolysis at 1 h, 100 microg/ml is 1.7%.
In the case of `OC(CN1CCN(CCCn2ccc3ccc(Cl)cc32)CC1)(Cn1cncn1)c1ccc(F)cc1F` (centres undefined), the MIC80 was determined as 5 µg/mL (≈ 9.71 µM) in [1]; 0.625 µg/mL (≈ 1.21 µM) in data set [4]; 0.062 µg/mL (≈ 0.12 µM) in data set [5]; 0.125 µg/mL (≈ 0.243 µM) in data set [6]; 5 µg/mL (≈ 9.71 µM) in data set [7]; 0.031 µg/mL (≈ 0.0602 µM) in data set [8]. Also, the MIC80 in [9] is 0.062 µg/mL (≈ 0.12 µM); in data set [12], 0.125 µg/mL (≈ 0.243 µM); in [15] it was 2.5 µg/mL (≈ 4.85 µM); in data set [16], 0.312 µg/mL (≈ 0.606 µM); in [17], 0.062 µg/mL (≈ 0.12 µM); in [18] it was 0.062 µg/mL (≈ 0.12 µM). Moreover, the MIC80 in data set [19] was found to be 0.25 µg/mL (≈ 0.485 µM).
Turning to `OC(CN1CCN(CCCn2ccc3ccc(Br)cc32)CC1)(Cn1cncn1)c1ccc(F)cc1F` (centres undefined), the MIC80 turned out to be 2.5 µg/mL (≈ 4.47 µM) in data set [1]; 0.312 µg/mL (≈ 0.558 µM) in data set [4]; 0.062 µg/mL (≈ 0.111 µM) in data set [5]; 0.031 µg/mL (≈ 0.0554 µM) in data set [6]; 1.25 µg/mL (≈ 2.23 µM) in [7]; 0.031 µg/mL (≈ 0.0554 µM) in data set [8]. The MIC80 in data set [9] is 0.031 µg/mL (≈ 0.0554 µM); in data set [12], 0.062 µg/mL (≈ 0.111 µM); in data set [15] it was 2.5 µg/mL (≈ 4.47 µM); in data set [16], 0.312 µg/mL (≈ 0.558 µM); in data set [17], 0.125 µg/mL (≈ 0.223 µM); in data set [18], 0.125 µg/mL (≈ 0.223 µM). For the same compound, the MIC80 in data set [19] is 0.5 µg/mL (≈ 0.894 µM).
On to `Cc1ccc2c(ccn2CCCN2CCN(CC(O)(Cn3cncn3)c3ccc(F)cc3F)CC2)c1` (centres undefined), for which the MIC80 in [1] came to 5 µg/mL (≈ 10.1 µM); in [4] it was 0.625 µg/mL (≈ 1.26 µM); in data set [5] it was 0.062 µg/mL (≈ 0.125 µM); in data set [6] it was 0.125 µg/mL (≈ 0.253 µM); in data set [7], 5 µg/mL (≈ 10.1 µM); in data set [8], 0.062 µg/mL (≈ 0.125 µM). For the same compound, the MIC80 was determined as 0.062 µg/mL (≈ 0.125 µM) in [9]; 0.125 µg/mL (≈ 0.253 µM) in data set [12]; 2.5 µg/mL (≈ 5.05 µM) in [15]; 0.625 µg/mL (≈ 1.26 µM) in data set [16]; 0.062 µg/mL (≈ 0.125 µM) in data set [17]; 0.125 µg/mL (≈ 0.253 µM) in data set [18]. For the same compound, in [19], the MIC80 was determined as 0.25 µg/mL (≈ 0.505 µM).
With `O=[N+]([O-])c1ccc2c(ccn2CCN2CCN(CC(O)(Cn3cncn3)c3ccc(F)cc3F)CC2)c1` (centres undefined), the MIC80 was 1.25 µg/mL (≈ 2.44 µM) in data set [1]; 0.312 µg/mL (≈ 0.61 µM) in [4]; 0.031 µg/mL (≈ 0.0606 µM) in [5]; 0.062 µg/mL (≈ 0.121 µM) in data set [6]; 1.25 µg/mL (≈ 2.44 µM) in data set [7]; 0.031 µg/mL (≈ 0.0606 µM) in data set [8]. The MIC80 worked out at 0.062 µg/mL (≈ 0.121 µM) in data set [9]; 0.062 µg/mL (≈ 0.121 µM) in [12]; 1.25 µg/mL (≈ 2.44 µM) in [15]; 0.312 µg/mL (≈ 0.61 µM) in [16]; 0.031 µg/mL (≈ 0.0606 µM) in [17]; 0.031 µg/mL (≈ 0.0606 µM) in [18]. For the same compound, the MIC80 in [19] was determined as 0.062 µg/mL (≈ 0.121 µM).
Regarding `OC(CN1CCN(CCCn2ccc3ccccc32)CC1)(Cn1cncn1)c1ccc(F)cc1F` (centres undefined), the MIC80 in data set [1] amounted to 5 µg/mL (≈ 10.4 µM); in data set [4], 0.625 µg/mL (≈ 1.3 µM); in [5], 0.062 µg/mL (≈ 0.129 µM); in data set [6], 0.125 µg/mL (≈ 0.26 µM); in data set [7], 10 µg/mL (≈ 20.8 µM); in data set [8] it was 0.062 µg/mL (≈ 0.129 µM). The MIC80 in [9] stood at 0.062 µg/mL (≈ 0.129 µM); in data set [12], 0.125 µg/mL (≈ 0.26 µM); in [15], 2.5 µg/mL (≈ 5.2 µM); in data set [16], 0.625 µg/mL (≈ 1.3 µM); in data set [17] it was 0.062 µg/mL (≈ 0.129 µM); in [18], 0.125 µg/mL (≈ 0.26 µM). In addition, the MIC80 in data set [19] was determined as 0.062 µg/mL (≈ 0.129 µM).
